{"source": "patent US9757408B2", "about": "(Hayashibara Co., Ltd., priority 2010, dated 2017)", "key": {"[1]": {"system": "IL-4 production of spleen cells", "assay": "IL-4 production of spleen cells stimulated with anti-CD3 antibody, from gel-treated mice (Experiment 16)", "type": "in vivo, NC/Nga mice", "method": "(§1) On Friday of the 6th week of the induction (46th day after initiating the application), all the mice were sacrificed, followed by isolating their spleens and collecting spleen cells in usual manner. […] To each well 2 μg/mL of “Purified Mouse CD3ε Monoclonal Antibody”, a product name of an anti-CD3 antibody, commercialized by Cosmo Bio Co., Ltd., Tokyo, Japan, was added, and the cells were incubated at 37° C. for three days in a 5% v/v CO2 incubator, followed by assaying the levels of cytokines in each supernatant thereof.\n(§2) The results are in Table 19 in parallel."}, "[2]": {"system": "IL-5 production of spleen cells", "assay": "IL-5 production of spleen cells stimulated with anti-CD3 antibody, from gel-treated mice (Experiment 16)", "type": "in vivo, NC/Nga mice", "method": "as §1, §2"}, "[3]": {"system": "mice with colitis induced by dextran sulfate sodium", "assay": "Dextran sulfate sodium colitis mice: diarrhea/hematochezia scores, DAI, haptoglobin (Experiment 13)", "type": "in vivo, C57BL/6 mice", "settings": "dextran sulfate sodium intake, 94 mg/kg orally once a day", "method": "Dextran sulfate sodium (commercialized by MP Biomedicals, CA, USA, molecular weight of 36,000 to 50,000) was dissolved in tap water, and all the mice of these five groups consisting of eight heads each were allowed to freely take the solution for five days (Experiment groups 2 to 5). […] The eight mice of the remaining one group were administered through a gastric tube with PBS once a day at a dose of 0.2 mL/head over 11 days from the day of initiating the administration of dextran sulfate sodium (Experiment group 2). The five mice of one group, which had not been administered with dextran sulfate sodium, were bred for 11 days on the normal feed while allowing them to take tap water freely (Experiment group 1).\nThe mice were weighed and their degree of diarrhea and hematochezia were macroscopically observed every day over 11 days from the day of initiating the intake of dextran sulfate sodium. The body weight reduction percentage (%) was determined by dividing the body weight of a mouse at 11th day after initiating the intake of dextran sulfate sodium by the body weight of the mouse at the day of initiating the intake, and multiplying the value by 100, and subtracting the resulting value from 100. The scores of diarrhea and hematochezia and the body weight reduction percentage (%) in each mouse were scored according to the criteria as shown in Table 13. For each group, the average of the total scores of diarrhea and hematochezia on days ranging from the day (intake day 0) of initiating the intake of dextran sulfate sodium to 11th day therefrom (intake day 10) are determined and shown in Table 14. The total scores of diarrhea, hematochezia, and body weight reduction percentage for each mouse at 11th day (intake day 10) after initiating the intake of dextran sulfate sodium are calculated for disease activity index (DAI) used as an index for colitis, averaged for each group, and shown in Table 14. On 11th day after initiating the intake of dextran sulfate sodium, each mouse was collected blood, followed by assaying haptoglobin or an acute phase protein, as an index for inflammatory, on an ELISA kit commercialized by Life Diagnostics USA, and averaging the data for each group. The results are in Table 14 in parallel. Since one mouse in Experiment group 2 administered with only dextran sulfate sodium was dead at 11th day after initiating the intake of dextran sulfate sodium, the results of Experiment group 2 at 11th day (intake day 10) after initiating the intake of dextran sulfate sodium represent the average of seven mice."}, "[4]": {"system": "mouse with severe acute pancreatitis induced by choline-deficient ethionine-added feed", "assay": "Severe acute pancreatitis induced by choline-deficient ethionine-added feed, survival (Experiment 15)", "type": "in vivo, CD1(ICR) mice", "settings": "oral 124 mg/kg body weight/shot twice a day", "source_text": "After seven days of a preliminary breeding, the mice were fasted for one day and allowed to freely take a choline-deficient ethionine-added feed, produced by Oriental Yeast Co., Ltd., Tokyo, Japan, for three days from the next day. Thereafter, the mice were fed on normal feed again and then fed on the choline-deficient ethionine-added feed. […] Eight mice in the remaining one group as a control were orally administered through a gastric tube with distilled water twice a day every morning and evening in a liquid volume of 0.2 mL/head/shot from the initiation of fasting. The survival number of mice in each group was macroscopically confirmed up to seven days from the initiation of taking the choline-deficient ethionine-added feed, and the survival rate (%) of mice in each group was determined. The survival rate (%) of mice was determined similarly as in Experiment 1."}, "[5]": {"settings": "compared to mice applied with gel prepared by adding refined water (Experiment group 1)"}, "[6]": {"settings": "supernatant of spleen cells stimulated with anti-CD3 antibody, picryl chloride-sensitized mice applied with gel"}}}
{"smiles": "Nc1ncnc2c1ncn2[C@@H]1O[C@H](CO)[C@@H](O)[C@H]1O", "note": "[AN, adenosine]", "values": [{"measurement": "production level of IL-4 of spleen cells stimulated with the anti-CD3 antibody", "setting": "[1]; [5]", "value": "showed no difference"}, {"measurement": "Content of IL-4", "setting": "[1]; [6]", "value": 9.8, "unit": "ng/mL"}, {"measurement": "production level of IL-5 of spleen cells stimulated with the anti-CD3 antibody", "setting": "[2]; [5]", "value": "showed no difference"}, {"measurement": "Content of IL-5", "setting": "[2]; [6]", "value": 225, "unit": "ng/mL"}, {"measurement": "Content of haptoglobin", "setting": "[3]; blood on 11th day", "value": 4.0, "unit": "mg/mL"}, {"measurement": "Total scores of diarrhea and hematochezia, day 0", "setting": "[3]; day 0", "value": 0}, {"measurement": "Total scores of diarrhea and hematochezia, day 1", "setting": "[3]; day 1", "value": 0}, {"measurement": "Total scores of diarrhea and hematochezia, day 2", "setting": "[3]; day 2", "value": 0}, {"measurement": "Total scores of diarrhea and hematochezia, day 3", "setting": "[3]; day 3", "value": 0.3}, {"measurement": "Total scores of diarrhea and hematochezia, day 4", "setting": "[3]; day 4", "value": 1.0}, {"measurement": "Total scores of diarrhea and hematochezia, day 5", "setting": "[3]; day 5", "value": 1.4}, {"measurement": "Total scores of diarrhea and hematochezia, day 6", "setting": "[3]; day 6", "value": 1.3}, {"measurement": "Total scores of diarrhea and hematochezia, day 7", "setting": "[3]; day 7", "value": 1.4}, {"measurement": "Total scores of diarrhea and hematochezia, day 8", "setting": "[3]; day 8", "value": 1.4}, {"measurement": "Total scores of diarrhea and hematochezia, day 9", "setting": "[3]; day 9", "value": 1.4}, {"measurement": "DAI (total scores of diarrhea, hematochezia, and body weight reduction percentage), day 10", "setting": "[3]; day 10", "value": 4.6}, {"measurement": "Total scores of diarrhea and hematochezia, day 10", "setting": "[3]; day 10", "value": 1.6}, {"measurement": "Survival rate (%) of mice, 48 Hours", "setting": "[4]; 48 Hours", "value": 100.0, "unit": "%"}, {"measurement": "Survival rate (%) of mice, 70 Hours", "setting": "[4]; 70 Hours", "value": 20.0, "unit": "%"}, {"measurement": "Survival rate (%) of mice, 78 Hours", "setting": "[4]; 78 Hours", "value": 50.0, "unit": "%"}, {"measurement": "Survival rate (%) of mice, 94 Hours", "setting": "[4]; 94 Hours", "value": 25.0, "unit": "%"}, {"measurement": "Survival rate (%) of mice, 102 Hours", "setting": "[4]; 102 Hours", "value": 12.5, "unit": "%"}, {"measurement": "Survival rate (%) of mice, 144 Hours", "setting": "[4]; 144 Hours", "value": 12.5, "unit": "%"}]}
